Experimental data from PubChem BioAssay (NCI).
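The compound was tested at five concentrations on cells cultured in 96-well plates, with a 48-hour exposure period. Here, GI50 denotes the concentration required for 50% inhibition of growth. TGI: concentration producing complete growth inhibition.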

Assays:
Experiment in all cases: inhibition of tumour cell growth, NCI panel, 48 h; in the data active means GI50 below about 0.43 µM; inactive means the rest
[1] = system: OVCAR-5 ovarian
[2] = system: SW-620 colon
[3] = system: CAKI-1 renal
[4] = system: T-47D breast
[5] = system: UO-31 renal
[6] = system: A549 NSCLC
[7] = system: MDA-MB-231 breast
[8] = system: HCC-2998 colon
[9] = system: MDA-MB-435
[10] = system: MCF7 breast
[11] = system: IGROV1 ovarian
[12] = system: U251 CNS
[13] = system: SK-MEL-5 melanoma
[14] = system: SF-268 CNS
[15] = system: NCI-H226 lung
[16] = system: UACC-62 melanoma
[17] = system: RPMI-8226 leukemia
[18] = system: TK-10 renal
[19] = system: COLO 205 colon
[20] = system: MOLT-4 leukemia
[21] = system: DU-145 prostate
[22] = system: NCI/ADR-RES ovarian
[23] = system: SNB-75 CNS
[24] = system: NCI-H460 lung
[25] = system: HOP-92 NSCLC
[26] = system: OVCAR-8 ovarian
[27] = system: EKVX NSCLC
[28] = system: HL-60(TB) leukemia
[29] = system: SN12C renal
[30] = system: A498 renal
[31] = system: HOP-62 NSCLC
[32] = system: RXF 393 renal
[33] = system: SK-MEL-2 melanoma
[34] = system: UACC-257 melanoma
[35] = system: SNB-19 CNS
[36] = system: K-562 leukemia
[37] = system: OVCAR-3 ovarian
[38] = system: NCI-H522 lung
[39] = system: SK-MEL-28 melanoma
[40] = system: HS 578T breast
[41] = system: LOX IMVI melanoma
[42] = system: ACHN renal
[43] = system: BT-549 breast
[44] = system: 786-0 renal
[45] = system: SF-539 CNS
[46] = system: SR leukemia
[47] = system: CCRF-CEM leukemia
[48] = system: HCT-116 colon
[49] = system: SK-OV-3 ovarian
[50] = system: KM12 colon
[51] = system: OVCAR-4 ovarian
[52] = system: PC-3 prostate
[53] = system: MALME-3M melanoma
[54] = system: M14 melanoma
[55] = system: HT29 colon
[56] = system: HCT-15 colon
[57] = system: SF-295 CNS

Cc1ccc(S(=O)(=O)Cc2nc(-c3ccc(C(=O)NCc4cccnc4)cc3)oc2C)cc1
inactive: GI50 [3] 1.87 µM | GI50 [5] 23.7 µM | GI50 [6] > 21.5 µM | GI50 [7] 5.78 µM | GI50 [8] 18.4 µM | GI50 [10] 3.93 µM | GI50 [12] 1.01 µM | GI50 [13] 2.85 µM | GI50 [14] 19 µM | GI50 [15] > 100 µM | GI50 [16] > 91.2 µM | GI50 [18] > 67.8 µM | GI50 [19] 0.492 µM | GI50 [20] 0.595 µM | GI50 [22] 0.623 µM | GI50 [23] 4.73 µM | GI50 [24] 0.843 µM | GI50 [25] 13 µM | GI50 [27] > 100 µM | GI50 [28] 1.97 µM | GI50 [30] > 100 µM | GI50 [31] 15.4 µM | GI50 [32] 27.6 µM | GI50 [33] 5.45 µM | GI50 [34] > 100 µM | GI50 [37] 8.1 µM | GI50 [38] 1.33 µM | GI50 [39] 15.5 µM | GI50 [40] 7.9 µM | GI50 [41] 8.12 µM | GI50 [42] 7.06 µM | GI50 [43] 3.37 µM | GI50 [44] 20 µM | GI50 [46] 0.514 µM | GI50 [49] 14.5 µM | GI50 [51] 2.64 µM | GI50 [53] 27.5 µM | GI50 [57] 9.34 µM
47.9 µM: TGI [23]
> 76.7 µM: TGI [12]
> 86.3 µM: TGI [33]
> 100 µM: TGI [1] | TGI [2] | TGI [3] | TGI [4] | TGI [5] | TGI [6] | TGI [7] | TGI [8] | TGI [10] | TGI [11] | TGI [13] | TGI [14] | TGI [15] | TGI [16] | TGI [17] | TGI [18] | TGI [19] | TGI [20] | TGI [21] | TGI [22] | TGI [24] | TGI [25] | TGI [26] | TGI [27] | TGI [28] | TGI [29] | TGI [30] | TGI [32] | TGI [34] | TGI [35] | TGI [36] | TGI [37] | TGI [39] | TGI [40] | TGI [41] | TGI [42] | TGI [43] | TGI [44] | TGI [46] | TGI [47] | TGI [48] | TGI [49] | TGI [50] | TGI [51] | TGI [52] | TGI [53] | TGI [54] | TGI [55] | TGI [56] | TGI [57]
> 88.8 µM: TGI [31]
27.7 µM: TGI [38]
12 µM: TGI [9]
active: GI50 [2] < 0.01 µM | GI50 [4] 0.287 µM | GI50 [9] 0.054 µM | GI50 [11] 0.189 µM | GI50 [17] 0.0673 µM | GI50 [21] 0.0907 µM | GI50 [26] < 0.01 µM | GI50 [29] < 0.01 µM | GI50 [35] 0.0869 µM | GI50 [36] < 0.01 µM | GI50 [45] < 0.01 µM | GI50 [47] 0.0103 µM | GI50 [48] < 0.01 µM | GI50 [50] 0.266 µM | GI50 [52] 0.224 µM | GI50 [54] 0.0699 µM | GI50 [55] 0.0784 µM | GI50 [56] 0.0524 µM
> 35.5 µM: TGI [45]
